In general, EC50 refers to the concentration at which the effect is half-maximal. As usually defined, the logD is lipophilicity at a set pH, counting ionised and neutral species. A word on the solubility: it is the dissolved amount per volume that the medium holds. Low values mean little dissolved substance, high ones much dissolved substance.

Results on 26 compounds are retold here after ChEMBL document CHEMBL3112436, “Discovery of a novel series of indoline carbamate and indolinylpyrimidine derivatives as potent GPR119 agonists” (Bioorg Med Chem, 2014).

Converted amounts (≈) assume the structure as drawn.

Data set [1] has as its target T1, Glucose-dependent insulinotropic receptor (Homo sapiens, UniProt Q8TDV5).
T1 sequence (Q8TDV5 whole entry): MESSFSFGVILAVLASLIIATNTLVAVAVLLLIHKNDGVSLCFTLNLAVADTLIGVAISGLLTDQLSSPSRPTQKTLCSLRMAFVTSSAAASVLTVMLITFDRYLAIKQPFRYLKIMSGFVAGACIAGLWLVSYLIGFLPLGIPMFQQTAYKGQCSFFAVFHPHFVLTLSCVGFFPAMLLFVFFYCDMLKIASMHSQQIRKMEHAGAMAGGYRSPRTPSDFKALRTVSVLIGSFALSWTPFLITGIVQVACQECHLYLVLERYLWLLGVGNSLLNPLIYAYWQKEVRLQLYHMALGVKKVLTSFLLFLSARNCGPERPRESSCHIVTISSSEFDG
The data set can be described thus: Agonist activity at human GPR119 transfected in CHO cells assessed as cAMP accumulation after 2 hrs by luciferase reporter gene assay. The data set is classed as functional, cell-based. (cAMP levels reflect the balance of adenylyl cyclase and phosphodiesterase activity.)

A short description of data set [2]: 1-Octanol-water partition coefficient, log D of the compound at pH 7.4 by HPLC analysis. The data set is classed as physicochemical.
Data set [3] in a line: Aqueous solubility of the compound in buffer at pH 6.8 by HPLC analysis. The data set is classed as physicochemical.
Data set [4] relates to Rattus norvegicus. As to the kind of experiment: Antidiabetic activity in Wistar fatty rat type 2 diabetic model assessed as reduction of plasma glucose level at 10 mg/kg, po administered 1 hr prior to glucose challenge by oral glucose tolerance test. The data set is classed as functional, organism-based. Also on record: dose 10 mg/kg. As to conditions: TDE = time-dependent effect.

Data set [5] deals with Rattus norvegicus. The data set can be described thus: Antidiabetic activity in Wistar fatty rat type 2 diabetic model assessed as increase in insulin secretion at 10 mg/kg, po administered 1 hr prior to glucose challenge by oral glucose tolerance test. The data set is classed as functional, organism-based. Also on record: dose 10 mg/kg. The following applies: TDE = time-dependent effect.

The subject of data set [6] is Rattus norvegicus. The data set can be described thus: Antidiabetic activity in Wistar fatty rat type 2 diabetic model assessed as reduction of plasma glucose level at 30 mg/kg, po administered 1 hr prior to glucose challenge by oral glucose tolerance test. The data set is classed as functional, organism-based. Also on record: dose 30 mg/kg. The following applies: TDE = time-dependent effect.

In data set [7] the test system is Rattus norvegicus. The data set can be described thus: Antidiabetic activity in Wistar fatty rat type 2 diabetic model assessed as increase in insulin secretion at 30 mg/kg, po administered 1 hr prior to glucose challenge by oral glucose tolerance test. The data set is classed as functional, organism-based. The arrangement: dose 30 mg/kg. The following applies: TDE = time-dependent effect.

`CC(C)(C)OC(=O)N1CCC(CCNC(=O)N2CCc3cc(S(C)(=O)=O)ccc32)CC1`: the EC50 in data set [1] amounted to 2500 nM. In data set [2], this compound showed a logD of 2.3.
Turning to `CC(C)OC(=O)N1CCC(Oc2ccnc(N3CCc4cc(S(C)(=O)=O)ccc43)c2)CC1`, the EC50 in data set [1] amounted to 87 nM. Moreover, in data set [2], the logD is 3.
Turning to `Cc1cc(S(C)(=O)=O)cc2c1N(C(=O)OCCC1CCN(C(=O)OC(C)(C)C)CC1)CC2`, the EC50 in data set [1] came to 44 nM. For the same compound, the logD in data set [2] was determined as 3.2. Also, the solubility in data set [3] was determined as 44 µg/mL (≈ 94.3 µM).
Consider `CC(C)OC(=O)N1CCC(Oc2ccnc(N3CCc4cc(S(C)(=O)=O)ccc43)n2)CC1`, for which the EC50 in data set [1] stood at 8800 nM. The logD in data set [2] came out at 3.5.
Take `CC(C)(C)OC(=O)N1CCC(CCOC(=O)N2CCc3c2ccc(S(C)(=O)=O)c3Cl)CC1`: the EC50 in data set [1] worked out at 530 nM. The logD in data set [2] was 3.6. Moreover, the solubility in data set [3] stood at 0.21 µg/mL (≈ 0.431 µM).
Taken in the same sequence, the figures for `CC(C)(C)OC(=O)N1CCC(CCOC(=O)N2CCc3cc(S(C)(=O)=O)cc(Cl)c32)CC1` were 21 nM, 3.2 and 21 µg/mL (≈ 43.1 µM).
The like results for `CC(COC(=O)N1CCc2cc(S(C)(=O)=O)cc(F)c21)C1CCN(C(=O)OC(C)(C)C)CC1` (racemic) were, in that order, 6.8 nM, 3.3 and 21 µg/mL (≈ 43.3 µM).
The like results for `COc1cc(S(C)(=O)=O)cc2c1N(C(=O)OCCC1CCN(C(=O)OC(C)(C)C)CC1)CC2` were, in that order, 1700 nM, 2.8 and 64 µg/mL (≈ 133 µM).
In the case of `CC(C)OC(=O)N1CCC(Oc2cccc(N3CCc4cc(S(C)(=O)=O)ccc43)c2)CC1`, the EC50 in data set [1] was determined as 490 nM. In addition, the logD in data set [2] is 3.5.
Taken in the same sequence, the figures for `CC(C)(C)OC(=O)N1CCC(CCCCN2CCc3cc(S(C)(=O)=O)ccc32)CC1` were 1400 nM and 4.1.
Consider `CC(C)(C)OC(=O)N1CCC(CCOC(=O)N2CCc3cc(S(C)(=O)=O)cc(F)c32)CC1`, for which, in data set [1], the EC50 worked out at 25 nM. Also, the logD in data set [2] was found to be 3. The same compound gave a solubility in data set [3] of 42 µg/mL (≈ 89.3 µM).
`CC(C)c1noc(N2CCC(Oc3cc(N4CCc5cc(S(C)(=O)=O)ccc54)ncn3)CC2)n1`: the Activity result with Rattus norvegicus [4] and in the data set with Rattus norvegicus [5] was “tde” in each case. For the same compound, the EC50 in data set [1] came to 7.7 nM. Also, the logD in data set [2] is 3.1.
In the case of `CC(CC1CCN(C(=O)OC(C)(C)C)CC1)OC(=O)N1CCc2cc(S(C)(=O)=O)ccc21` (racemic), the EC50 in data set [1] came out at 2600 nM. Further, in data set [2], the logD is 3.4.
The like results for `CCc1cnc(N2CCC(Oc3cc(N4CCc5cc(S(C)(=O)=O)ccc54)ncn3)CC2)nc1` were, in that order, 11 nM and 3.8.
With `Cc1c(S(C)(=O)=O)ccc2c1CCN2C(=O)OCCC1CCN(C(=O)OC(C)(C)C)CC1`, the EC50 in data set [1] was found to be 770 nM. In addition, in data set [2], the logD was found to be 3.4. The concentration in solution in data set [3] (solubility) was 0.17 µg/mL (≈ 0.364 µM).
As to `CC(C)(C)OC(=O)N1CCC(C(O)COC(=O)N2CCc3cc(S(C)(=O)=O)ccc32)CC1` (racemic), the EC50 in data set [1] came to 2400 nM. The logD in data set [2] came to 2.1.
The like results for `CC(C)OC(=O)N1CCC(Oc2cc(N3CCc4cc(S(C)(=O)=O)ccc43)ncn2)CC1` were, in that order, 17 nM and 3.1.
The like results for `CC(C)(C)OC(=O)N1CCC(CCOC(=O)N2CCc3cc(S(C)(=O)=O)ccc32)CC1` were, in that order, 68 nM and 3.1.
Taken in the same sequence, the figures for `CC(C)OC(=O)N1CCC(Oc2ncnc(N3CCc4cc(S(C)(=O)=O)ccc43)n2)CC1` were 520 nM and 2.6.
Take `CCc1cnc(N2CCC(C(C)COC(=O)N3CCc4cc(S(C)(=O)=O)cc(F)c43)CC2)nc1` (racemic): the Activity result with Rattus norvegicus [6] and with Rattus norvegicus [7] was “tde” in each case. Also, the EC50 in data set [1] came to 3.9 nM. Further, the pH-dependent lipophilicity (logD) in data set [2] was found to be 3.6. The solubility in data set [3] was determined as 3.8 µg/mL (≈ 7.75 µM).
Take `CC(C)(C)OC(=O)N1CCC(CCOC(=O)N2CCc3cc(S(C)(=O)=O)c(F)cc32)CC1`: the EC50 in data set [1] turned out to be 160 nM. The compound further gave a logD in data set [2] of 3.3. The compound further had a solubility in data set [3] of 0.67 µg/mL (≈ 1.42 µM).
Regarding `CC(C)(C)OC(=O)N1CCC(n2ccc3c(N4CCc5cc(S(C)(=O)=O)ccc54)ncnc32)CC1`, in data set [1], the EC50 is 16 nM.
As for `CC(C)(C)OC(=O)N1CCC(CCCC(=O)N2CCc3cc(S(C)(=O)=O)ccc32)CC1`, the EC50 in data set [1] stood at 120 nM. The compound further displayed a logD in data set [2] of 2.9.
As for `COc1cc2c(cc1S(C)(=O)=O)CCN2C(=O)OCCC1CCN(C(=O)OC(C)(C)C)CC1`, in data set [1], the EC50 worked out at 4800 nM. The same compound had a logD in data set [2] of 3.3. The compound also registered a solubility in data set [3] of 45 µg/mL (≈ 93.2 µM).
Taken in the same sequence, the figures for `CC(C)(C)OC(=O)N1CCC(CCOC(=O)N2CCc3c2ccc(S(C)(=O)=O)c3F)CC1` were 25 nM, 3.2 and 0.81 µg/mL (≈ 1.72 µM).
Turning to `CC(COC(=O)N1CCc2cc(S(C)(=O)=O)ccc21)C1CCN(C(=O)OC(C)(C)C)CC1` (racemic), the concentration for a half-maximal effect (EC50) in data set [1] was 8.4 nM. The logD in data set [2] is 3.4.
